Measured values taken from patent US11840528B2 (Hoffmann-La Roche Inc., priority 2018, dated 2023).
pKi: −log10 of the molar value.

What was measured:
h-GABA-A α5β3γ2 [1] = target: T1, h-GABA-A α5β3γ2 (Homo sapiens, UniProt P18507+P31644); experiment: [3H]flumazenil competition binding assay, membranes of HEK293 cells expressing GABAA receptors
Method in brief: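 Receptor source: human α5β3γ2 transiently transfected into HEK293 cells, membranes in pH 7.5 Krebs-tris. Filtration through GF/C, then scintillation counting.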

h-GABA-A α5β3γ2 [2] = target: T1, h-GABA-A α5β3γ2; experiment: Two-electrode voltage clamp electrophysiology in Xenopus laevis oocytes expressing GABAA receptors, modulation of GABA EC20 current; format: cell-based; parameters: host or cells: Xenopus laevis oocytes micro-injected with RNA transcripts of the subunits
Method in brief: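 Modulation is reported as % of the GABA EC20 current, calculated as 100*(Fold increase−1) from the peak ratio between a second GABA response carrying compound (applied at roughly 30-fold Ki) and a preceding control response. Oocytes expressing human α5β3γ2 were clamped at −80 mV at room temperature, 3–5 days after injection.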

[3] = displacement of [3H]-Flumazenil 0.5 nM, HEK293 cells expressing human receptors, mean of two determinations, Table 1
[4] = % modulation of GABA EC20 = 100*(Fold increase-1), Table 1
[5] = test compound at approx. 30 fold its Ki, GABA at EC20, Table 1

SMILES	pKi (h-GABA-A α5β3γ2 [1]; [3])	Efficacy (GABA) % (h-GABA-A α5β3γ2 [2]; [4])	Fold increase h-GABA-A α5β3γ2 oocyte (h-GABA-A α5β3γ2 [2]; [5])	pKi (h-GABA-A α5β3γ2 [1]; reference compounds, Table 2)	Efficacy (GABA) % (h-GABA-A α5β3γ2 [2]; reference compounds, % modulation of GABA EC20, Table 2)	Fold increase h-GABA-A α5β3γ2 oocyte (h-GABA-A α5β3γ2 [2]; reference compounds, Table 2)
CCOc1ccc(-c2cnn(Cc3c(-c4ccc(C)nc4)noc3C)c(=O)c2)cn1 [Example 151, 5-(6-ethoxypyridin-3-yl)-2-((5-methyl-3-(6-methylpyridin-3-yl)isoxazol-4-yl)methyl)pyridazin-3(2H)-one]	7.57	119%	2.19	–	–	–
Cc1ccc(-c2noc(C)c2Cn2ncc(N3CC4(CCOCC4)C3)cc2=O)cn1 [Example 199, 2-((5-methyl-3-(6-methylpyridin-3-yl)isoxazol-4-yl)methyl)-5-(7-oxa-2-azaspiro[3.5]nonan-2-yl)pyridazin-3(2H)-one]	7.71	117%	2.17	–	–	–
Cc1onc(-c2ccc(Cl)nc2)c1Cn1ncc(N2CC3(CCC(F)CO3)C2)cc1=O (single isomer, unassigned) [Example 298]	7.60	116%	2.16	–	–	–
COc1ccc(-c2cnn(Cc3c(-c4ccc(C)nc4)noc3C)c(=O)c2)cn1 [Example 81, 5-(6-methoxypyridin-3-yl)-2-((5-methyl-3-(6-methylpyridin-3-yl)isoxazol-4-yl)methyl)pyridazin-3(2H)-one]	7.62	123%	2.23	–	–	–
Cc1ccc(-c2noc(C)c2Cn2ncc(-c3cnn(CC4(C)COC4)c3)cc2=O)cn1 [Example 176, 2-((5-methyl-3-(6-methylpyridin-3-yl)isoxazol-4-yl)methyl)-5-(1-((3-methyloxetan-3-yl)methyl)-1H-pyrazol-4-yl)pyridazin-3(2H)-one]	7.53	103%	2.03	–	–	–
Cc1ccc(-c2noc(C)c2Cn2ncc(N3C[C@@H](C)N[C@@H](C)C3)cc2=O)cn1 [Example 93, 5-[(3R,5S)-3,5-dimethylpiperazin-1-yl]-2-[[5-methyl-3-(6-methyl-3-pyridyl)isoxazol-4-yl]methyl]pyridazin-3-one]	8.80	125%	2.25	–	–	–
Cc1ccc(-c2noc(C)c2Cn2ncc(N3C4COCC3C4)cc2=O)cn1 [Example 33, 2-[[5-methyl-3-(6-methyl-3-pyridyl)isoxazol-4-yl]methyl]-5-(3-oxa-6-azabicyclo[3.1.1]heptan-6-yl)pyridazin-3-one]	8.49	150%	2.5	–	–	–
Cc1onc(-c2ccccc2)c1COc1ccc(N2CCCC2)nn1 [RO-035, reference compound]	–	–	–	7.98	−35%	0.65
Cc1ccc(-c2noc(C)c2Cn2ncc(N3CC(OC(F)F)C3)cc2=O)cn1 [Example 168, 5-[3-(difluoromethoxy)azetidin-1-yl]-2-[[5-methyl-3-(6-methyl-3-pyridyl)isoxazol-4-yl]methyl]pyridazin-3-one]	8.03	140%	2.4	–	–	–
Cc1onc(-c2ccc(Cl)nc2)c1Cn1ncc(N2CCC3(CCCCO3)CC2)cc1=O [Example 333, 2-[[3-(6-chloro-3-pyridyl)-5-methyl-isoxazol-4-yl]methyl]-5-(1-oxa-9-azaspiro[5.5]undecan-9-yl)pyridazin-3-one]	7.38	190%	2.9	–	–	–
Cc1ccc(-c2noc(C)c2Cn2ncc(N3CC4(CC(C(F)(F)F)CCO4)C3)cc2=O)nn1 (single isomer, unassigned) [Example 312]	8.19	127%	2.27	–	–	–
COc1ncc(-c2cnn(Cc3c(-c4ccc(C)nc4)noc3C)c(=O)c2)cc1Cl [Example 188, 5-(5-chloro-6-methoxypyridin-3-yl)-2-((5-methyl-3-(6-methylpyridin-3-yl)isoxazol-4-yl)methyl)pyridazin-3(2H)-one]	8.07	210%	3.1	–	–	–
Cc1ccc(-c2noc(C)c2Cn2ncc(N3CC(OC4CC4)C3)cc2=O)nn1 [Example 239, 5-[3-(cyclopropoxy)azetidin-1-yl]-2-[[5-methyl-3-(6-methylpyridazin-3-yl)isoxazol-4-yl]methyl]pyridazin-3-one]	9.00	67%	1.67	–	–	–
Cc1ccc(-c2nocc2Cn2ncc(N3CCO[C@H](C)C3)cc2=O)cn1 [Example 92, 5-[(2R)-2-methylmorpholin-4-yl]-2-[[3-(6-methyl-3-pyridyl)isoxazol-4-yl]methyl]pyridazin-3-one]	7.59	167%	2.67	–	–	–
Cc1ccc(-c2noc(C)c2Cn2ncc(N3CCC(C)(O)CC3)cc2=O)cn1 [Example 119, 5-(4-hydroxy-4-methylpiperidin-1-yl)-2-((5-methyl-3-(6-methylpyridin-3-yl)isoxazol-4-yl)methyl)pyridazin-3(2H)-one]	8.59	138%	2.38	–	–	–
Cc1ccc(-c2noc(C)c2Cn2ncc(N3CC4(C[C@H](O)CO4)C3)cc2=O)cn1 [Example 131, 5-[(7S)-7-hydroxy-5-oxa-2-azaspiro[3.4]octan-2-yl]-2-[[5-methyl-3-(6-methyl-3-pyridyl)isoxazol-4-yl]methyl]pyridazin-3-one]	7.77	105%	2.05	–	–	–
Cc1onc(-c2ccc(Cl)nc2)c1Cn1ncc(N2C[C@@H](C)O[C@@H](C)C2)cc1=O [Example 219, 2-((3-(6-chloropyridin-3-yl)-5-methylisoxazol-4-yl)methyl)-5-((2RS,6SR)-2,6-dimethylmorpholino)pyridazin-3(2H)-one]	8.59	247%	3.47	–	–	–
Cc1ccc(-c2noc(C)c2Cn2ncc(N3CC(OCC(F)F)C3)cc2=O)nn1 [Example 306, 5-(3-(2,2-difluoroethoxy)azetidin-1-yl)-2-((5-methyl-3-(6-methylpyridazin-3-yl)isoxazol-4-yl)methyl)pyridazin-3(2H)-one]	8.92	101%	2.01	–	–	–
Cc1ccc(-c2noc(C)c2Cn2ncc(N3CC4(CCCCO4)C3)cc2=O)cn1 [Example 216, 2-((5-methyl-3-(6-methylpyridin-3-yl)isoxazol-4-yl)methyl)-5-(5-oxa-2-azaspiro[3.5]nonan-2-yl)pyridazin-3(2H)-one]	7.80	103%	2.03	–	–	–
CCc1onc(-c2ccc(C)nn2)c1Cn1ncc(N2CC3(CCC(F)CO3)C2)cc1=O (single isomer, unassigned) [Example 325]	8.49	178%	2.78	–	–	–
Cc1onc(-c2ccc(Cl)nc2)c1Cn1ncc(N2CC3(CCCO3)C2)cc1=O [Example 209, 2-((3-(6-chloropyridin-3-yl)-5-methylisoxazol-4-yl)methyl)-5-(5-oxa-2-azaspiro[3.4]octan-2-yl)pyridazin-3(2H)-one]	7.28	94%	1.94	–	–	–
Cc1onc(-c2ccc(Cl)nc2)c1Cn1ncc(N2CCN(c3ccnnc3)CC2)cc1=O [Example 263, 2-((3-(6-chloropyridin-3-yl)-5-methylisoxazol-4-yl)methyl)-5-(4-(pyridazin-4-yl)piperazin-1-yl)pyridazin-3(2H)-one]	8.38	205%	3.05	–	–	–
Cc1ccc(-c2noc(C)c2Cn2ncc(N3CC4(CCC(C(F)(F)F)CO4)C3)cc2=O)nn1 (single isomer, unassigned) [Example 320]	7.61	226%	3.26	–	–	–
Cc1ccc(-c2noc(C)c2Cn2ncc(N3CC4(CC(F)CCO4)C3)cc2=O)cn1 (single isomer, unassigned) [Example 274]	7.80	110%	2.1	–	–	–
